Experiments:
[1] = biological target: CYP3A (Homo sapiens, UniProt P08684); conditions: ciprofloxacin at 2 mM, in vitro; cited from earlier work
[2] = system: CYP3A/P‐gp; conditions: clinical DDI studies; cited from earlier work
[3] = system: P‐gp; conditions: reported value, P-gp-mediated efflux; cited from earlier work
[4] = Apparent permeability of naloxegol in Caco-2 cells; assay type: in vitro ADME; conditions: human
[5] = Naloxegol blood/plasma, microsomal and gut binding inputs; assay type: in vitro ADME; conditions: plasma
[6] = cited from earlier work
[7] = system: CYP3A; conditions: individual CYP enzymes and human liver microsomes in vitro; cited from earlier work
[8] = cited from earlier work; remark: listed apart in the source
[9] = system: CYP3A4; assay: Retrograde calculation of naloxegol metabolic intrinsic clearance; parameters: species or system human
[10] = Physicochemical properties of naloxegol; conditions: Experimental data

Sequence of CYP3A (Homo sapiens, UniProt P08684) (P08684 2-503): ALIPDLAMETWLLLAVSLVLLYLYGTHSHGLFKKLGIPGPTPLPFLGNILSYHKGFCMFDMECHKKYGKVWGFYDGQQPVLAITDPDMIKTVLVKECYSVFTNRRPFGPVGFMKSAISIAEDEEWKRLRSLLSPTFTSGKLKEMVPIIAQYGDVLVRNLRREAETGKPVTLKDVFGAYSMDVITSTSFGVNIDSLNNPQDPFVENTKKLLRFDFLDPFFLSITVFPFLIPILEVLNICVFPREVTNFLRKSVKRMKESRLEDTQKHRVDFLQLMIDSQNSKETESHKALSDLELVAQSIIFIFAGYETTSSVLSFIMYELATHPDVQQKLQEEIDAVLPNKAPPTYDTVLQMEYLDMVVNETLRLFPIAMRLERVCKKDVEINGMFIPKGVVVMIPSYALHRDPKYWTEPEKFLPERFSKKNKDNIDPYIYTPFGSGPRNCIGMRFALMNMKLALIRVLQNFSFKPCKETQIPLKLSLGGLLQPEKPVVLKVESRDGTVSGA

SMILES: O=C(O)c1cn(C2CC2)c2cc(N3CCNCC3)c(F)cc2c1=O [Ciprofloxacin, ciprofloxacin]
- inhibition of erythromycin‐mediated CYP3A activity [1]: 65%

SMILES: CC(=O)N1CCN(c2ccc(OCC3COC(Cn4ccnc4)(c4ccc(Cl)cc4Cl)O3)cc2)CC1 (centres unmarked) [Ketoconazole, ketoconazole]
- observed increase of naloxegol AUC [2]: 1,185%

SMILES: C[C@H]1O[C@@H](O[C@H]2[C@@H](O)C[C@H](O[C@H]3[C@@H](O)C[C@H](O[C@H]4CC[C@@]5(C)[C@H](CC[C@@H]6[C@@H]5C[C@@H](O)[C@]5(C)[C@@H](C7=CC(=O)OC7)CC[C@]65O)C4)O[C@@H]3C)O[C@@H]2C)C[C@H](O)[C@@H]1O [digoxin]
- in vitro transporter‐mediated intrinsic clearance [3]: 2.5 µL/min

SMILES: C=CCN1CC[C@]23c4c5ccc(O)c4O[C@H]2[C@@H](OCCOCCOCCOCCOCCOCCOCCOC)CC[C@@]3(O)[C@H]1C5 [naloxegol]
- Papp [4]: 45.5 nm/s
- fraction unbound [5]: 0.958
- solubility [6]: highly soluble
- CYP enzymes metabolizing naloxegol [7]: metabolized primarily by CYP3A
- parent drug excreted in urine ([8]; 27 mg [14C]naloxegol oral solution, healthy male volunteers): < 6 % of the dose
- dose linearity of PK ([8]; dose of up to 1,000 mg): linear or near linear
- CLR ([8]; renal clearance from the renal impairment study): 4.74 L/h
- CLpo ([8]; total clearance after an oral dose, observed in the ketoconazole DDI study): 150 L/h
- CYP3A4 CLint ([9]; Retrograde calculation): 0.267 μL/min/pmol protein
- microsomal CLint ([9]; human): 36.6 µL/min/mg
- pKa [10]: 8.45
